# Measured values from patent publication US20250144067A1, “PERSONALIZED STARVATION THERAPY FOR CANCER” (Faeth Therapeutics, Inc., priority 2021, published 2025).
# Where a name gives a salt, the structure may show the parent alone.
# Test system: NCI-H292 lung cancer cells
# Assay: FDA drug screening, complete media vs cholesterol-free media without statin (TABLE 1)
# Type: cell-based, human
# Settings: not given
SMILES,Cholesterol-free,Complete,Difference
O=c1[nH]ccc2c(S(=O)(=O)N3CCCNCC3)cccc12 [Hydroxyfasudil (hydrochloride)],1.045,0.7884,−0.26
O=c1[nH]ccc2c(S(=O)(=O)N3CCCNCC3)cccc12 [Hydroxyfasudil],0.944,1.011,0.07

# Same assay, conditions: Complete minus Cholesterol-free; >0 enhanced anti-cancer activity, about 0 neutral, <0 antagonist
row,SMILES,Difference
1,CC[C@H]1CN2CC[C@H]1C[C@@H]2[C@@H](O)c1ccnc2ccc(OC)cc12 [Hydroquinidine],0.06
2,O=c1c(O[C@@H]2O[C@H](CO)[C@H](O)[C@H](O)[C@H]2O)c(-c2ccc(O)c(O)c2)oc2cc(O)cc(O)c12 [Hyperoside],−0.03
3,CCCCCN(C)CCC(O)(P(=O)(O)O)P(=O)(O)O [Ibandronate (Sodium Monohydrate)],−0.03
4,C=CC(=O)N1CCC[C@@H](n2nc(-c3ccc(Oc4ccccc4)cc3)c3c(N)ncnc32)C1 [Ibrutinib],−0.07
5,CC(C)C(=O)c1c(C(C)C)nn2ccccc12 [Ibudilast],0.04
6,C#Cc1cccc(Nc2ncnc3cc4c(cc23)OCCOCCOCCO4)c1 [Icotinib (Hydrochloride)],0.05
7,C#Cc1cccc(Nc2ncnc3cc4c(cc23)OCCOCCOCCO4)c1 [Icotinib],−0.05
8,CC(=O)[C@]1(O)Cc2c(O)c3c(c(O)c2[C@@H](O[C@H]2C[C@H](N)[C@H](O)[C@H](C)O2)C1)C(=O)c1ccccc1C3=O [Idarubicin (hydrochloride)],−0.01
9,COC1=C(OC)C(=O)C(CCCCCCCCCCO)=C(C)C1=O [Idebenone],−0.21
10,COc1cc(C(C)=O)ccc1OCCCN1CCC(c2noc3cc(F)ccc23)CC1 [Iloperidone],−0.06

# Same assay, conditions: Complete minus Cholesterol-free; greater than 0 enhanced anti-cancer activity, about 0 neutral, below 0 antagonist
row,SMILES,Difference
1,CC(C)Cc1ccc(C(C)C(=O)OCc2ccccn2)cc1 (centres unmarked) [Ibuprofen piconol],−0.18
2,CC[C@H](Nc1ncnc2[nH]cnc12)c1nc2cccc(F)c2c(=O)n1-c1ccccc1 [Idelalisib],−0.13

# Same assay, conditions: NCI-H292 cells, FDA drug library screen, cholesterol-free media without statin
row,SMILES,Cholesterol-free
1,CC(C)Cc1ccc(C(C)C(=O)OCc2ccccn2)cc1 (centres unmarked) [Ibuprofen piconol],1.26
2,CC[C@H](Nc1ncnc2[nH]cnc12)c1nc2cccc(F)c2c(=O)n1-c1ccccc1 [Idelalisib],1.096

# Same assay, conditions: NCI-H292 cells, FDA drug library screen, complete media
row,SMILES,Complete
1,CC(C)Cc1ccc(C(C)C(=O)OCc2ccccn2)cc1 (centres unmarked) [Ibuprofen piconol],1.082
2,CC[C@H](Nc1ncnc2[nH]cnc12)c1nc2cccc(F)c2c(=O)n1-c1ccccc1 [Idelalisib],0.9672

# Same assay, conditions: NCI-H292 cells, cholesterol-free media without statin
row,SMILES,Cholesterol-free
1,COC1=C(OC)C(=O)C(CCCCCCCCCCO)=C(C)C1=O [Idebenone],1.239

# Same assay, conditions: NCI-H292 cells, cholesterol-free media without statin, FDA drug library screen
row,SMILES,Cholesterol-free
1,CC[C@H]1CN2CC[C@H]1C[C@@H]2[C@@H](O)c1ccnc2ccc(OC)cc12 [Hydroquinidine],0.8191
2,O=c1c(O[C@@H]2O[C@H](CO)[C@H](O)[C@H](O)[C@H]2O)c(-c2ccc(O)c(O)c2)oc2cc(O)cc(O)c12 [Hyperoside],0.9192
3,CCCCCN(C)CCC(O)(P(=O)(O)O)P(=O)(O)O [Ibandronate (Sodium Monohydrate)],1.101
4,C=CC(=O)N1CCC[C@@H](n2nc(-c3ccc(Oc4ccccc4)cc3)c3c(N)ncnc32)C1 [Ibrutinib],0.4459
5,CC(C)C(=O)c1c(C(C)C)nn2ccccc12 [Ibudilast],1.126
6,C#Cc1cccc(Nc2ncnc3cc4c(cc23)OCCOCCOCCO4)c1 [Icotinib (Hydrochloride)],0.2697
7,C#Cc1cccc(Nc2ncnc3cc4c(cc23)OCCOCCOCCO4)c1 [Icotinib],0.4295
8,CC(=O)[C@]1(O)Cc2c(O)c3c(c(O)c2[C@@H](O[C@H]2C[C@H](N)[C@H](O)[C@H](C)O2)C1)C(=O)c1ccccc1C3=O [Idarubicin (hydrochloride)],−0.02296

# Same assay, conditions: NCI-H292 cells, complete media
row,SMILES,Complete
1,COC1=C(OC)C(=O)C(CCCCCCCCCCO)=C(C)C1=O [Idebenone],1.029

# Same assay, conditions: NCI-H292 cells, complete media, FDA drug library screen
row,SMILES,Complete
1,CC[C@H]1CN2CC[C@H]1C[C@@H]2[C@@H](O)c1ccnc2ccc(OC)cc12 [Hydroquinidine],0.8815
2,O=c1c(O[C@@H]2O[C@H](CO)[C@H](O)[C@H](O)[C@H]2O)c(-c2ccc(O)c(O)c2)oc2cc(O)cc(O)c12 [Hyperoside],0.8906
3,CCCCCN(C)CCC(O)(P(=O)(O)O)P(=O)(O)O [Ibandronate (Sodium Monohydrate)],1.074
4,C=CC(=O)N1CCC[C@@H](n2nc(-c3ccc(Oc4ccccc4)cc3)c3c(N)ncnc32)C1 [Ibrutinib],0.3765
5,CC(C)C(=O)c1c(C(C)C)nn2ccccc12 [Ibudilast],1.165
6,C#Cc1cccc(Nc2ncnc3cc4c(cc23)OCCOCCOCCO4)c1 [Icotinib (Hydrochloride)],0.324
7,C#Cc1cccc(Nc2ncnc3cc4c(cc23)OCCOCCOCCO4)c1 [Icotinib],0.3774
8,CC(=O)[C@]1(O)Cc2c(O)c3c(c(O)c2[C@@H](O[C@H]2C[C@H](N)[C@H](O)[C@H](C)O2)C1)C(=O)c1ccccc1C3=O [Idarubicin (hydrochloride)],−0.02941
9,COc1cc(C(C)=O)ccc1OCCCN1CCC(c2noc3cc(F)ccc23)CC1 [Iloperidone],0.8863

# Test system: NCI-H292 lung cancer cells
# Assay: FDA drug screening, complete media vs cholesterol-free media with simvastatin (TABLE 2)
# Type: cell-based, human
# Settings: not given
SMILES,Cholesterol-free media + simvastatin (0.04 μM),Complete Media,Difference
O=c1[nH]ccc2c(S(=O)(=O)N3CCCNCC3)cccc12 [Hydroxyfasudil (hydrochloride)],0.8461,0.9788,0.13
O=c1[nH]ccc2c(S(=O)(=O)N3CCCNCC3)cccc12 [Hydroxyfasudil],0.9404,0.8562,−0.08

# Same assay, conditions: NCI-H292 cells, FDA drug library screen, cholesterol-free media with simvastatin 0.04 μM
row,SMILES,Cholesterol-free media + simvastatin (0.04 μM)
1,O=c1c(O[C@@H]2O[C@H](CO)[C@H](O)[C@H](O)[C@H]2O)c(-c2ccc(O)c(O)c2)oc2cc(O)cc(O)c12 [Hyperoside],0.9665
2,C=CC(=O)N1CCC[C@@H](n2nc(-c3ccc(Oc4ccccc4)cc3)c3c(N)ncnc32)C1 [Ibrutinib],0.5962
3,COc1cc(C(C)=O)ccc1OCCCN1CCC(c2noc3cc(F)ccc23)CC1 [Iloperidone],0.9523

# Same assay, conditions: NCI-H292 cells, FDA drug library screen, complete media
row,SMILES,Complete Media
1,O=c1c(O[C@@H]2O[C@H](CO)[C@H](O)[C@H](O)[C@H]2O)c(-c2ccc(O)c(O)c2)oc2cc(O)cc(O)c12 [Hyperoside],0.8144
2,C=CC(=O)N1CCC[C@@H](n2nc(-c3ccc(Oc4ccccc4)cc3)c3c(N)ncnc32)C1 [Ibrutinib],0.4594
3,COc1cc(C(C)=O)ccc1OCCCN1CCC(c2noc3cc(F)ccc23)CC1 [Iloperidone],1.134

# Same assay, conditions: NCI-H292 cells, FDA library drug in cholesterol-free media with simvastatin 0.04 μM
row,SMILES,Cholesterol-free media + simvastatin (0.04 μM)
1,CC[C@H]1CN2CC[C@H]1C[C@@H]2[C@@H](O)c1ccnc2ccc(OC)cc12 [Hydroquinidine],1.791
2,CCCCCN(C)CCC(O)(P(=O)(O)O)P(=O)(O)O [Ibandronate (Sodium Monohydrate)],1.077
3,CC(C)Cc1ccc(C(C)C(=O)OCc2ccccn2)cc1 (centres unmarked) [Ibuprofen piconol],1.357
4,CC[C@H](Nc1ncnc2[nH]cnc12)c1nc2cccc(F)c2c(=O)n1-c1ccccc1 [Idelalisib],1.507

# Same assay, conditions: NCI-H292 cells, FDA library drug in complete media
row,SMILES,Complete Media
1,CC[C@H]1CN2CC[C@H]1C[C@@H]2[C@@H](O)c1ccnc2ccc(OC)cc12 [Hydroquinidine],1.518
2,CCCCCN(C)CCC(O)(P(=O)(O)O)P(=O)(O)O [Ibandronate (Sodium Monohydrate)],0.796
3,CC(C)Cc1ccc(C(C)C(=O)OCc2ccccn2)cc1 (centres unmarked) [Ibuprofen piconol],0.8958
4,CC[C@H](Nc1ncnc2[nH]cnc12)c1nc2cccc(F)c2c(=O)n1-c1ccccc1 [Idelalisib],1.219

# Same assay, conditions: NCI-H292 cells, cholesterol-free media with simvastatin 0.04 μM; FDA drug library screen (TABLE 2)
row,SMILES,Cholesterol-free media + simvastatin (0.04 μM)
1,C#Cc1cccc(Nc2ncnc3cc4c(cc23)OCCOCCOCCO4)c1 [Icotinib (Hydrochloride)],0.5866
2,CC(=O)[C@]1(O)Cc2c(O)c3c(c(O)c2[C@@H](O[C@H]2C[C@H](N)[C@H](O)[C@H](C)O2)C1)C(=O)c1ccccc1C3=O [Idarubicin (hydrochloride)],0.008408

# Same assay, conditions: NCI-H292 cells, cholesterol-free media with simvastatin 0.04 μM; cell growth value in FDA drug screen
row,SMILES,Cholesterol-free media + simvastatin (0.04 μM)
1,CC(C)C(=O)c1c(C(C)C)nn2ccccc12 [Ibudilast],1.245
2,C#Cc1cccc(Nc2ncnc3cc4c(cc23)OCCOCCOCCO4)c1 [Icotinib],0.6476
3,COC1=C(OC)C(=O)C(CCCCCCCCCCO)=C(C)C1=O [Idebenone],1.049

# Same assay, conditions: NCI-H292 cells, complete media; FDA drug library screen (TABLE 2)
row,SMILES,Complete Media
1,C#Cc1cccc(Nc2ncnc3cc4c(cc23)OCCOCCOCCO4)c1 [Icotinib (Hydrochloride)],0.5343
2,CC(=O)[C@]1(O)Cc2c(O)c3c(c(O)c2[C@@H](O[C@H]2C[C@H](N)[C@H](O)[C@H](C)O2)C1)C(=O)c1ccccc1C3=O [Idarubicin (hydrochloride)],0.002721

# Same assay, conditions: NCI-H292 cells, complete media; cell growth value in FDA drug screen
row,SMILES,Complete Media
1,CC(C)C(=O)c1c(C(C)C)nn2ccccc12 [Ibudilast],1.273
2,C#Cc1cccc(Nc2ncnc3cc4c(cc23)OCCOCCOCCO4)c1 [Icotinib],0.6925
3,COC1=C(OC)C(=O)C(CCCCCCCCCCO)=C(C)C1=O [Idebenone],1.125

# Same assay, conditions: complete media minus cholesterol-free media + simvastatin (0.04 μM); >0 enhanced anti-cancer activity, about 0 neutral, <0 antagonist
row,SMILES,Difference
1,C#Cc1cccc(Nc2ncnc3cc4c(cc23)OCCOCCOCCO4)c1 [Icotinib (Hydrochloride)],−0.05
2,CC(=O)[C@]1(O)Cc2c(O)c3c(c(O)c2[C@@H](O[C@H]2C[C@H](N)[C@H](O)[C@H](C)O2)C1)C(=O)c1ccccc1C3=O [Idarubicin (hydrochloride)],−0.01

# Same assay, conditions: complete media minus cholesterol-free media + simvastatin; >0 enhanced anti-cancer activity, about 0 neutral, <0 antagonist
row,SMILES,Difference
1,CC(C)C(=O)c1c(C(C)C)nn2ccccc12 [Ibudilast],0.03
2,C#Cc1cccc(Nc2ncnc3cc4c(cc23)OCCOCCOCCO4)c1 [Icotinib],0.04
3,COC1=C(OC)C(=O)C(CCCCCCCCCCO)=C(C)C1=O [Idebenone],0.08
4,COc1cc(C(C)=O)ccc1OCCCN1CCC(c2noc3cc(F)ccc23)CC1 [Iloperidone],0.18

# Same assay, conditions: complete media vs cholesterol-free media + simvastatin (0.04 μM); >0 enhanced anti-cancer activity, about 0 neutral, <0 antagonist
row,SMILES,Difference
1,CC[C@H]1CN2CC[C@H]1C[C@@H]2[C@@H](O)c1ccnc2ccc(OC)cc12 [Hydroquinidine],−0.27
2,O=c1c(O[C@@H]2O[C@H](CO)[C@H](O)[C@H](O)[C@H]2O)c(-c2ccc(O)c(O)c2)oc2cc(O)cc(O)c12 [Hyperoside],−0.15
3,CCCCCN(C)CCC(O)(P(=O)(O)O)P(=O)(O)O [Ibandronate (Sodium Monohydrate)],−0.28
4,C=CC(=O)N1CCC[C@@H](n2nc(-c3ccc(Oc4ccccc4)cc3)c3c(N)ncnc32)C1 [Ibrutinib],−0.14
5,CC(C)Cc1ccc(C(C)C(=O)OCc2ccccn2)cc1 (centres unmarked) [Ibuprofen piconol],−0.46
6,CC[C@H](Nc1ncnc2[nH]cnc12)c1nc2cccc(F)c2c(=O)n1-c1ccccc1 [Idelalisib],−0.29
